Source: PMC8329197, “Compounds targeting OSBPL7 increase ABCA1-dependent cholesterol efflux preserving kidney function in two models of kidney disease” (Nature Communications, 2021)
Values joined by “and” are separate entries in the source; they are usually repeats but may differ in a detail not shown here. Equal values may be shown once.

Tests used:
human podocytes = experiment: apoAI-mediated cholesterol efflux in human podocytes; assay type: cell-based; conditions: for ApoA1-mediated cholesterol efflux (%) in podocytes: single experiments
Experimental: Cell lines were purchased from ATCC and subcultured for no more than passage 15, except for human podocytes, which were originally from Dr Jochen Reiser. Conditionally immortalized human podocytes were cultured under permissive conditions at 33 °C, in RPMI medium (Corning) containing 10% FBS (GIBCO), 1% penicillin/streptomycin, 0.01 mg/ml recombinant human insulin, 0.0055 mg/ml human transferrin (substantially iron-free), and 0.005 μg/ml sodium selenite (ITS, Corning). To induce differentiation, podocytes were cultured at 37 °C for 14 days in RPMI medium containing 10% FBS (GIBCO) and 1% penicillin/streptomycin. Differentiated podocytes were starved in RPMI-0.2% FBS for 18 h and then treated with 1 μM, 5 μM, and 10 μM of compounds freshly prepared in DMSO for 18 h at 37 °C as indicated.
Human podocytes differentiated for 13 days were labeled for 24 h at 37 °C in RPMI medium containing 2% FBS and [^3H]-cholesterol (1 μCi/ml, American Radiolabeled Chemicals). Cells were then washed 3 times with PBS and incubated with RPMI supplemented with 0.2% fat free-BSA (Sigma) with or without compounds for 18-h at 37 °C. The compounds were used at the following concentrations: Cpd C (1 μM), Cpd A (1 μM, 5 μM) and Cpd G (1 μM, 5 μM, 10 μM). Following the 18-h incubation, human apoAI (Calbiochem) was added to the media, (20 μg/mL final concentration) and the cells were incubated for another 18 h at 37 °C. Aliquots of medium collected before (T = 0 h) and after (T = 18 h) the addition of apoAI were centrifuged at 12,000 × g for 5 min and the radioactivity in the supernatant was counted by liquid scintillation. Cells were then washed with PBS, lysed 0.1% SDS, 0.1M NaOH and the radioactivity in the lysates was quantified by liquid scintillation. apoAI-mediated cholesterol efflux, expressed as %, was calculated as the amount of label released to the medium after adding apoAI (the difference in radioactivity in the medium before and after adding ApoA1) divided by the amount of total label in each well (radioactivity released to the media plus radioactivity in the lysed cells).

[1] = tested on: Adriamycin (ADR)-induced nephropathy in Balb/c mice; experiment: Adriamycin-induced nephropathy, dose-finding pilot study: ACR and body weight time course; conditions: for ACR in pilot study: days 7-28; for Body Weight / ACR in spot urine: ADR, individual mice
[2] = tested on: Adriamycin (ADR)-induced nephropathy in Balb/c mice; experiment: ADR nephropathy: blood urea nitrogen (BUN) and serum creatinine; assay type: in vivo, mouse; conditions: 28 days treatment
Excerpt: Supplement 41467_2021_24890_MOESM5_ESM.xlsx, sheet "Supplementary Table 4" | column: ADR+ Cpd A; ADR+ Cpd G; ADR+ Cpd C

[3] = tested on: Adriamycin (ADR)-induced nephropathy in Balb/c mice; experiment: ADR nephropathy: kidney cortex lipids (cholesterol ester, total cholesterol, triglycerides, Oil-red O); assay type: in vivo, mouse; conditions: ADR model; individual animals
Experimental: OCT embedded kidney cortex samples were cryosectioned at 4 μm thickness and stained with Oil-Red O-isopropanol solution (Electron Microscopy Science, PA) diluted 6:4 in water, and then counterstained with Hematoxylin Harris Hg Free (VWR, PA). Sections were then evaluated using a light microscope (Olympus BX 41, Tokyo, Japan).
Snap frozen kidney cortex samples were homogenized in 2 mM potassium phosphate buffer, pH 7, (10 µl buffer/mg tissue) using a glass douncer on ice. 100 μl of the homogenate were mixed thoroughly with 1 ml of hexane:isopropanol (3:2;v:v) per volume of tissue homogenate. The aqueous (pellet) and organic (supernatant) phases were separated by centrifugation at 12,000 × g for 5 min. Pellets (aqueous phase) were dried, reconstituted in 8 M urea, 0.1% SDS, 0.1 M NaOH, and total proteins were quantified by the BCA method (Thermofisher). The organic phase was dried by exposure to nitrogen. Lipids were then reconstituted in 100 µl isopropanol:NP-40 (9:1;v:v). Triglyceride content was assayed using a colorimetric kit according to the manufacturer’s instructions (Cayman Chemical USA). Total cholesterol and CE content were assayed using an enzymatic fluorometric method. For total cholesterol measurement, extracts were diluted 1:100 in assay buffer (100 mM potassium phosphate, 50 mM NaCl, 5 mM cholic acid, 0.1% Triton […], pH 7.4) containing cholesterol oxidase (1 U/ml), cholesterol esterase (1 U/ml), horseradish peroxidase (1 U/ml), and Amplex Red (75 µM). The reactions were incubated at 37 °C for 30 min in a black opaque 96-well plate (Greiner) and fluorescence was measured in a microplate reader (Spectramax i3X, Molecular Devices) at 530 nm excitation and 580 emission.
For CE determination, 150 µl of the assay buffer described above, supplemented with bovine liver catalase (45 U/ml) and cholesterol oxidase (1 U/ml), was added to 25 μl of sample and incubated overnight at 37 °C to deplete free cholesterol leaving only cholesterol esters. Then, 75 µl of cholesterol ester detection reagent (1 U/ml cholesterol oxidase, 4 U/ml cholesterol esterase, 24 U/ml horseradish peroxidase, 300 µM Amplex Red) was added. The reaction was incubated at 37 °C for 30 min and the fluorescence signal was measured as described above. Internal standards included samples containing 1 mM of cholesterol and 5 μM of cholesterol oleate in order to verify the completeness of the enzymatic decomposition of free cholesterol as well as assay sensitivity and specificity.

[4] = 30 mg/Kg/day, 7 days after inj, 30 mg/kg/day
[5] = 30 mg/Kg/day, 14 days after inj, 30 mg/kg/day
[6] = 100 mg/Kg/day, 7 days after inj, 100 mg/kg/day
[7] = 100 mg/Kg/day, 14 days after inj, 100 mg/kg/day
[8] = 100 mg/Kg/day, 21 days after inj, 100 mg/kg/day
[9] = 100 mg/Kg/day, 28 days after inj, 100 mg/kg/day

SMILES: O=C(N[C@@H]1CCCC[C@H]1O)c1ccc(OCC(F)(F)F)c(-c2ccc(Cl)c(Cl)c2)n1 [Cpd A]
- ApoA1-mediated cholesterol efflux (%) in podocytes (human podocytes; 1 uM): 4.2% and 0.9% and 3.2% and 3.5% and 3.7%
- ApoA1-mediated cholesterol efflux (%) in podocytes (human podocytes; 5 uM): 3.3% and 4.4% and 1.5% and 3.7% and 2.4% and 6.4% and 7.6% and 3.5%
- Increase in apoAI-mediated cholesterol efflux vs. untreated cells (human podocytes; Cpd G 10 µM, Cpd A 5 µM, Cpd C 1 µM): ~2 fold
- ACR in pilot study ([1]; 30 mg/kg/day oral): significantly improved
- ACR in pilot study ([1]; 100 mg/kg/day oral): significantly improved
- Body Weight ([1]; 30 mg/Kg/day, 0 days after inj, 30 mg/kg/day): 19 grams (3×) and 18 grams and 20 grams
- ACR in spot urine [1, 4]: 0.046 mg Albumin/ mg Creatinine in urine and 0.018 mg Albumin/ mg Creatinine in urine and 0.038 mg Albumin/ mg Creatinine in urine and 0.025 mg Albumin/ mg Creatinine in urine and 0.07 mg Albumin/ mg Creatinine in urine
- Body Weight [1, 4]: 18 grams and 17 grams (3×) and 19 grams
- ACR in spot urine [1, 5]: 18.583 mg Albumin/ mg Creatinine in urine and 0.363 mg Albumin/ mg Creatinine in urine and 64.328 mg Albumin/ mg Creatinine in urine and 0.368 mg Albumin/ mg Creatinine in urine and 1.926 mg Albumin/ mg Creatinine in urine
- Body Weight [1, 5]: 18 grams (3×) and 17 grams (2×)
- Body Weight ([1]; 30 mg/Kg/day, 21 days after inj): 18 grams
- ACR in spot urine ([1]; 30 mg/Kg/day, 21 days after inj, 30 mg/kg/day): 1.551 mg Albumin/ mg Creatinine in urine and 71.309 mg Albumin/ mg Creatinine in urine and 0.609 mg Albumin/ mg Creatinine in urine and 0.814 mg Albumin/ mg Creatinine in urine
- Body Weight ([1]; 30 mg/Kg/day, 28 days after inj): 19 grams
- ACR in spot urine ([1]; 30 mg/Kg/day, 28 days after inj, 30 mg/kg/day): 2.363 mg Albumin/ mg Creatinine in urine and 0.33 mg Albumin/ mg Creatinine in urine and 3.08 mg Albumin/ mg Creatinine in urine and 0.093 mg Albumin/ mg Creatinine in urine and 0.242 mg Albumin/ mg Creatinine in urine
- Body Weight ([1]; 100 mg/Kg/day, 0 days after inj, 100 mg/kg/day): 20 grams (2×) and 18 grams and 19 grams (2×)
- ACR in spot urine [1, 6]: 0.022 mg Albumin/ mg Creatinine in urine and 0.015 mg Albumin/ mg Creatinine in urine and 0.072 mg Albumin/ mg Creatinine in urine and 0.065 mg Albumin/ mg Creatinine in urine
- Body Weight [1, 6]: 18 grams and 17 grams (4×)
- ACR in spot urine [1, 7]: 5.851 mg Albumin/ mg Creatinine in urine and 174.428 mg Albumin/ mg Creatinine in urine and 9.218 mg Albumin/ mg Creatinine in urine and 96.72 mg Albumin/ mg Creatinine in urine
- Body Weight [1, 7]: 17 grams (3×) and 18 grams and 19 grams
- ACR in spot urine [1, 8]: 3.536 mg Albumin/ mg Creatinine in urine and 136.245 mg Albumin/ mg Creatinine in urine and 73.737 mg Albumin/ mg Creatinine in urine and 208.282 mg Albumin/ mg Creatinine in urine
- Body Weight [1, 8]: 15 grams and 18 grams (3×)
- ACR in spot urine [1, 9]: 0.638 mg Albumin/ mg Creatinine in urine and 26.929 mg Albumin/ mg Creatinine in urine and 1.99 mg Albumin/ mg Creatinine in urine and 18.858 mg Albumin/ mg Creatinine in urine
- Body Weight [1, 9]: 15 grams and 19 grams and 18 grams and 14 grams
- BUN, QR(25) ([2]; 25th quartile): 16 mg/dL
- sCre, QR(25) ([2]; 25th quartile): 0.11 mg/dL
- BUN, QR(75) ([2]; 75th quartile): 17.75 mg/dL
- sCre, QR(75) ([2]; 75th quartile): 0.135 mg/dL
- BUN, Max ([2]; group maximum): 23 mg/dL
- sCre, Max ([2]; group maximum): 0.17 mg/dL
- BUN, Median ([2]; group median): 17 mg/dL
- sCre, Median ([2]; group median): 0.115 mg/dL
- BUN, Min ([2]; group minimum): 13 mg/dL
- sCre, Min ([2]; group minimum): 0.08 mg/dL
- Blood Urea nitrogen (BUN) ([2]; individual mouse values): 17 mg/dL and 23 mg/dL and 18 mg/dL and 19 mg/dL and 16 mg/dL and 15 mg/dL and 13 mg/dL
- Serum Creatinine sCre ([2]; individual mouse values): 0.12 mg/dL and 0.08 mg/dL and 0.17 mg/dL and 0.1 mg/dL and 0.15 mg/dL and 0.11 mg/dL and 0.14 mg/dL
- KIDNEY CORTEX TOTAL CHOLESTEROL [3]: 116.65 nmol Chol./mg protein and 64.31 nmol Chol./mg protein and 91.93 nmol Chol./mg protein and 226.3 nmol Chol./mg protein and 280.19 nmol Chol./mg protein and 194.83 nmol Chol./mg protein and 293.03 nmol Chol./mg protein and 87.04 nmol Chol./mg protein and 85.55 nmol Chol./mg protein and 75 nmol Chol./mg protein and 105.96 nmol Chol./mg protein
- KIDNEY CORTEX TRIGLYCERIDES [3]: 65.49 nmol Triglyceride /mg protein and 206.46 nmol Triglyceride /mg protein and 31.6 nmol Triglyceride /mg protein and 59.01 nmol Triglyceride /mg protein and 14.83 nmol Triglyceride /mg protein and 65.84 nmol Triglyceride /mg protein and 43.06 nmol Triglyceride /mg protein and 145.74 nmol Triglyceride /mg protein and 110.74 nmol Triglyceride /mg protein
